In patent US20260200946A1, “KRAS(G12V) INHIBITORS” (Ranok Therapeutics (Hangzhou) Co. Ltd., priority 2022, published 2026):

Experiments:
KRAS(G12V)/SOS1 = biological target: T1, KRAS(G12V)/SOS1 (Homo sapiens, UniProt P01116, G12V); assay: KRAS(G12V)/SOS1 homogeneous time-resolved fluorescence (HTRF) assay; assay type: binding; conditions: absence of GTP; 4° C., 3 hours; read-out: HTRF of KRASG12V-SOS1
T1 construct: purchased Cisbio 63ADK000CB18PEH
Procedure: Binding of test compounds to KRAS(G12V) target protein, which in turn blocks KRAS(G12V) interaction with the SOS1 protein, was measured in the absences of GTP by homogeneous time-resolved fluorescence using the KRAS-G12V/SOS1 Binding Assay Kit (Cisbio, 63ADK000CB18PEH), following the manufacturer's instructions, except as noted. 3-fold serial dilutions of each test compound were prepared ranging from 20 µM to 1.02 nM. The test compound was mixed and incubated with reaction components, incubated in a sealed plate at 4° C. for 3 hours and fluorescence was measured using a PerkinElmer Envision plate reader. The KRAS(G12V)-SOS1 IC50 values (the concentration of 50% of the maximal inhibition) were calculated using GraphPad Prism 8.0 software.

SW620 cells = assay: Cancer cell line proliferation (CellTiter-Glo), SW620; assay type: cell-based; conditions: Homo sapiens, SW-620, SW620 colorectal adenocarcinoma, homozygous G12V, 72 hr
Procedure: Cell lines were cultured essentially according to ATCC recommendations. SW620 and NCIH727 cells were plated in 384-well tissue culture plates at 1,000 cells/well and incubated at 37° C./5% CO2 for 72 hr in 40 μl of media. […] Each cell line was then treated with test compounds at various concentrations with a final concentration of 0.5% DMSO/well, and then incubated at 37° C./5% CO2 for 72 hr. 40 μl of CellTiter-Glo® Reagent (Promega Corporation, Madison, WI) was added to each well and processed according manufacturer's protocol. Results were analyzed and IC50 values were calculated in GraphPad 8.0 software.

NCIH727 cells = assay: Cancer cell line proliferation (CellTiter-Glo), NCI-H727; assay type: cell-based; conditions: Homo sapiens, 72 h, NCIH727 lung carcinoid, heterozygous G12V
In short: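 NCI-H727 cells (1,000/well) were grown 72 h at 37 °C/5% CO2, then exposed to compound at various concentrations (0.5% DMSO final) for a further 72 h. Viability was read by CellTiter-Glo luminescence, and IC50 values were calculated from the dose-response.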

T1 sequence (P01116 1-188 isoform P01116-2 G12V): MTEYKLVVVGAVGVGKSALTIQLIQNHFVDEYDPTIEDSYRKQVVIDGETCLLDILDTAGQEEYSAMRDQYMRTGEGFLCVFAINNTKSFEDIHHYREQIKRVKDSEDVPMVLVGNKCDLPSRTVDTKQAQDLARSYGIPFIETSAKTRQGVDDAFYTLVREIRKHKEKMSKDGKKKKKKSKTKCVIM

| Structure (SMILES) | IC50 (KRAS(G12V)/SOS1) | EC50 (SW620 cells) | EC50 (NCIH727 cells) |
| --- | --- | --- | --- |
| C#Cc1c(F)ccc2cc(O)cc(-c3ncc4c(N5CC6CCC(C5)N6C(=O)NC(=O)C(C)(C)C)nc(OCC5(CN6CCC(F)CC6)CC5)nc4c3F)c12 [Example 17] | 0.1 to 1 µM | > 1 µM | > 1 µM |
| C#Cc1c(F)ccc2cc(O)cc(-c3ncc4c(N5CC6CCC(C5)N6C(=O)N5CCC5)nc(OCC5(CN6CCC(F)CC6)CC5)nc4c3F)c12 [Example 18] | 0.1 to 1 µM | > 1 µM | > 1 µM |
| C#Cc1c(F)ccc2cc(O)cc(-c3nc(OC)c4c(N5CC6CCC(C5)N6C(=O)NC(C)(C)C)nc(OCC5(CN6CCC(F)CC6)CC5)nc4c3F)c12 [Example 21] | < 0.1 µM | 0.1 to 1 µM | 0.1 to 1 µM |
| C#Cc1c(F)ccc2cc(O)cc(-c3ncc4c(N5CC6CCC(C5)N6C(=O)C5(C(F)(F)F)CC5)nc(OCC5(CN6CCC(F)CC6)CC5)nc4c3F)c12 [Example 22] | 0.1 to 1 µM | > 1 µM | > 1 µM |
| C#Cc1c(F)ccc2cc(O)cc(-c3nc(OC)c4c(N5CC6CCC(C5)N6C(=O)NC#N)nc(OCC5(CN6CCC(F)CC6)CC5)nc4c3F)c12 [Example 23] | 0.1 to 1 µM | > 1 µM | > 1 µM |
| C#Cc1c(F)ccc2cc(O)cc(-c3ncc4c(N5CC6CCC(C5)N6C(=O)N5CC(OC)C5)nc(OCC5(CN6CCC(F)CC6)CC5)nc4c3F)c12 [Example 24] | 0.1 to 1 µM | > 1 µM | > 1 µM |
| C#Cc1c(F)ccc2cc(O)cc(-c3ncc4c(N5CC6CCC(C5)N6S(=O)(=O)NC(C)C)nc(OCC5(CN6CCC(F)CC6)CC5)nc4c3F)c12 [Example 25] | 0.1 to 1 µM | > 1 µM | > 1 µM |
| C#Cc1c(F)ccc2cc(O)cc(-c3nc(OC)c4c(N5CC6CCC(C5)N6C(=O)NCC(F)(F)F)nc(OCC5(CN6CCC(F)CC6)CC5)nc4c3F)c12 [Example 26] | < 0.1 µM | > 1 µM | 0.1 to 1 µM |
| C#Cc1c(F)ccc2cc(O)cc(-c3ncc4c(N5CC6CCC(C5)N6C(=O)CC5CC5)nc(OCC5(CN6CCC(F)CC6)CC5)nc4c3F)c12 [Example 27] | 0.1 to 1 µM | > 1 µM | > 1 µM |
| C#Cc1c(F)ccc2cc(O)cc(-c3ncc4c(N5CC6CCC(C5)N6C(=O)c5nnn[nH]5)nc(OCC5(CN6CCC(F)CC6)CC5)nc4c3F)c12 [Example 28] | 0.1 to 1 µM | > 1 µM | > 1 µM |
| C#Cc1c(F)ccc2cc(O)cc(-c3ncc4c(N5CC6CCC(C5)N6C(=O)NC#N)nc(OCC5(CN6CCC(F)CC6)CC5)nc4c3F)c12 [Example 29] | 0.1 to 1 µM | > 1 µM | > 1 µM |
| C#Cc1c(F)ccc2cc(O)cc(-c3ncc4c(N5CC6CCC(C5)N6C(=O)c5c[nH]cn5)nc(OCC5(CN6CCC(F)CC6)CC5)nc4c3F)c12 [Example 30] | 0.1 to 1 µM | > 1 µM | > 1 µM |
| C#Cc1c(F)ccc2cc(O)cc(-c3ncc4c(N5CC6CCC(C5)N6CC)nc(OCC5(CN6CCC(F)CC6)CC5)nc4c3F)c12 [Example 31] | 0.1 to 1 µM | > 1 µM | > 1 µM |
| C#Cc1c(F)ccc2cc(O)cc(-c3ncc4c(N5CC6CCC(C5)N6C(=O)NC(C)C(F)(F)F)nc(OCC5(CN6CCC(F)CC6)CC5)nc4c3F)c12 (stereo not drawn) [Example 32] | 0.1 to 1 µM | > 1 µM | > 1 µM |
| C#Cc1c(F)ccc2cc(O)cc(-c3ncc4c(N5CC6CCC(C5)N6S(=O)(=O)CC#N)nc(OCC5(CN6CCC(F)CC6)CC5)nc4c3F)c12 [Example 33] | 0.1 to 1 µM | > 1 µM | > 1 µM |
| C#Cc1c(F)ccc2cc(O)cc(-c3nc(OC)c4c(N5CC6CCC(C5)N6C(=O)NC5(C#N)CC5)nc(OCC5(CN6CCC(F)CC6)CC5)nc4c3F)c12 [Example 34] | 0.1 to 1 µM | 0.1 to 1 µM | 0.1 to 1 µM |
| C#Cc1c(F)ccc2cc(O)cc(-c3ncc4c(N5CC6CCC(C5)N6C(=O)NC5(C#N)CC5)nc(OCC5(CN6CCC(F)CC6)CC5)nc4c3F)c12 [Example 35] | 0.1 to 1 µM | 0.1 to 1 µM | 0.1 to 1 µM |
